This passage reports % of control and % of inhibition results from ChEMBL document CHEMBL5465560, “Selectivity Literature for EUbOPEN Chemogenomic Library” (2024).

The target of experiment [1] is Serine/threonine-protein kinase SIK3 (Homo sapiens) (UniProt Q9Y2K2). In words: Selectivity interaction (Ambit KINOMEscan and KiNATiv profiling in Jurkat cells) EUB0000090b SIK3. The class given is cell-based. The settings on record: at 1 µM.
Experiment [2] addresses Cyclin-dependent kinase 16 (Homo sapiens) (UniProt Q00536). In words: Selectivity interaction (Ambit KINOMEscan and KiNATiv profiling in Jurkat cells) EUB0000090b CDK16. The class given is cell-based. The settings on record: at 1 µM.
The target of experiment [3] is Sodium-dependent serotonin transporter (Homo sapiens, UniProt P31645). In words: Selectivity interaction (Panel of non-epigenetic targets (kinases, GPCRs, ion channels, and transporters, Eurofins) ) EUB0000271b SLC6A4. The settings on record: at 1 µM.
Sequence of Sodium-dependent serotonin transporter (P31645 whole entry, looked up): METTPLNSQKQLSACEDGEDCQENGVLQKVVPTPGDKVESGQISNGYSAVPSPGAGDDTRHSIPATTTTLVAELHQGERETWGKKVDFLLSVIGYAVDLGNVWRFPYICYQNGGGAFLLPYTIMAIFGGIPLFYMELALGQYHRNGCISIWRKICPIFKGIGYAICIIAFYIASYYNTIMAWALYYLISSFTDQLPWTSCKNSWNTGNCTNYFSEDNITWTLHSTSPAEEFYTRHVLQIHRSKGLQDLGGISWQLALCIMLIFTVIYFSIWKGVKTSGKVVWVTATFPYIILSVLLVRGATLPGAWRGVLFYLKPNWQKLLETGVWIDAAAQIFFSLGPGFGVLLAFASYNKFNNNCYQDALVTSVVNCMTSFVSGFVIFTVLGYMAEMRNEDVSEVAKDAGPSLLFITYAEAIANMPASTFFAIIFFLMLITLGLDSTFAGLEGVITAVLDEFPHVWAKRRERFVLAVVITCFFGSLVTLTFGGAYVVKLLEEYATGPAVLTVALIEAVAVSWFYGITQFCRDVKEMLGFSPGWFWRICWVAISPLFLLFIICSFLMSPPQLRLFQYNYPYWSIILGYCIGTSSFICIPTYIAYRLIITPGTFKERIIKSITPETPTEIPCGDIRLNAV
Experiment [4] has as its target Serine/threonine-protein kinase Nek6 (Homo sapiens) (UniProt Q9HC98). In words: Selectivity interaction (KinomeScan (DiscoverX)) EUB0000607a NEK6. The settings on record: at 10 µM.
The test system of experiment [5] is Leucine-rich repeat serine/threonine-protein kinase 2 (Homo sapiens), Q5S007 [G2019S]. Description: (§1) Selectivity interaction (KinomeScan (DiscoverX)) EUB0000655a LRRK2. The settings on record: at 10 µM.
Sequence of Leucine-rich repeat serine/threonine-protein kinase 2 (Homo sapiens), Q5S007 [G2019S] (Q5S007 whole entry G2019S): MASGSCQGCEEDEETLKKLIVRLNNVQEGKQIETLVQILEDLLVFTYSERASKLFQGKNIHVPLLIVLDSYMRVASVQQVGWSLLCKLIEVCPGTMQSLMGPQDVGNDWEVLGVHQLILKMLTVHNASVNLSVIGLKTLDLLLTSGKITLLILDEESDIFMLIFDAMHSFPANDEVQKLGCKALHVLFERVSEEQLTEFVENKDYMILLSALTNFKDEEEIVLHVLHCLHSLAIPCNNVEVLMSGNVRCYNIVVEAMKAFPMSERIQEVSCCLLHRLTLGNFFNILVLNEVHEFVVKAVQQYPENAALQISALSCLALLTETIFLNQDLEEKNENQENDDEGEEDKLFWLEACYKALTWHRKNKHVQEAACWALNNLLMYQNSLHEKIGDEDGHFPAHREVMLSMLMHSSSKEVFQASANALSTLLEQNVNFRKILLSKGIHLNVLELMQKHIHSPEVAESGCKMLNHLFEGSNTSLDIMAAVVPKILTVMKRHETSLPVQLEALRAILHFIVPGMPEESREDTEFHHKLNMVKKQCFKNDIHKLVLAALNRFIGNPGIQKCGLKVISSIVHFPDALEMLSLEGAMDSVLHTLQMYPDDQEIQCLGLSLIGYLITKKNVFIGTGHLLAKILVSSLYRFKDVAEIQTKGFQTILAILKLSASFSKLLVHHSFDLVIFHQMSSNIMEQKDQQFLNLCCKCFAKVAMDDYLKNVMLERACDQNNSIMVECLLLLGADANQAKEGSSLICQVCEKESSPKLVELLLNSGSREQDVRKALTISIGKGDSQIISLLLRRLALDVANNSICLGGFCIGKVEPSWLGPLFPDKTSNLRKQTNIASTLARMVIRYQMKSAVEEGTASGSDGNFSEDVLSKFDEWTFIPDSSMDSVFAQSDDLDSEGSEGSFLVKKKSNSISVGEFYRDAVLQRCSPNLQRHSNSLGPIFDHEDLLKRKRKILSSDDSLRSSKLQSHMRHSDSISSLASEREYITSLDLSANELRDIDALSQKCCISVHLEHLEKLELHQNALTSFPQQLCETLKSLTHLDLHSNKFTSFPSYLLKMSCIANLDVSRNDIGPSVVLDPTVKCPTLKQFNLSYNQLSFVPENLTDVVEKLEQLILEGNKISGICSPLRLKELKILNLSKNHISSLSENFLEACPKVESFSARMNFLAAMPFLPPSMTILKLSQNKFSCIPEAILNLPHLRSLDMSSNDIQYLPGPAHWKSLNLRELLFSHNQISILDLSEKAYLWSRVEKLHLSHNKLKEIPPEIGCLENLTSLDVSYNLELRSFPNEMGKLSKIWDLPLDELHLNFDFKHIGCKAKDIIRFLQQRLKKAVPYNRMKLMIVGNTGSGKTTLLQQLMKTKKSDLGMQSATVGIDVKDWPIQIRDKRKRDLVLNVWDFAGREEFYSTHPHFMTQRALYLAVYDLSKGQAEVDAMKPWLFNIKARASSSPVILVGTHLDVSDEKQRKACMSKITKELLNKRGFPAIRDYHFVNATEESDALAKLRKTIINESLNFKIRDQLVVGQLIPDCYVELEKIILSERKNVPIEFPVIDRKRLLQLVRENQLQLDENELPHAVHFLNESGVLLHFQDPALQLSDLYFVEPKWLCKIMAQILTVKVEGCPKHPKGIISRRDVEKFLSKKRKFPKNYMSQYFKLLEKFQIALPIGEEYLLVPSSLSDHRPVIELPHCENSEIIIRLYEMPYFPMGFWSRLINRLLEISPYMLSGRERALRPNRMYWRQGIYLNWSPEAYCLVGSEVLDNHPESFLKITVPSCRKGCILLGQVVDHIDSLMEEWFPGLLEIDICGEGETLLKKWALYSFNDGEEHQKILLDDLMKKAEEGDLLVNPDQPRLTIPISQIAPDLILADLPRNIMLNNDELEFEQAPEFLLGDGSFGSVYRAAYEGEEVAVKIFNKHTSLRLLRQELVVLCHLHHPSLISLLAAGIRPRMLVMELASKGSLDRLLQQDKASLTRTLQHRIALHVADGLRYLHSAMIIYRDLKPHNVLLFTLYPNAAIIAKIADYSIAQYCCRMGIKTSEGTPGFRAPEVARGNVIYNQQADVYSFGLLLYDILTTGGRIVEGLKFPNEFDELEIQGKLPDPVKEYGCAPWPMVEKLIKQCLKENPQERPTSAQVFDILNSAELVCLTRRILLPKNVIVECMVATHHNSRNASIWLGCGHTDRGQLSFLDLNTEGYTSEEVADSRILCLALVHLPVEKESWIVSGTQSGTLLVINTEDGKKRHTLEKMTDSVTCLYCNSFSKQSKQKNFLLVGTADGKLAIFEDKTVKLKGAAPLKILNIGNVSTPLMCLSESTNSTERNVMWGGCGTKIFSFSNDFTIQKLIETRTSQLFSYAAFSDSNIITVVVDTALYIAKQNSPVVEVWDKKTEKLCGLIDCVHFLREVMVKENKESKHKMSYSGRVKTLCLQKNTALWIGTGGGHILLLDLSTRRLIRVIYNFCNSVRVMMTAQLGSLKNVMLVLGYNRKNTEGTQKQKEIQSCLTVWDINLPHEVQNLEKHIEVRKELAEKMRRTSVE
In experiment [6] the target is Leucine-rich repeat serine/threonine-protein kinase 2 (Homo sapiens, UniProt Q5S007). The experiment is described as §1. The settings on record: at 10 µM.
Sequence of Leucine-rich repeat serine/threonine-protein kinase 2 (Q5S007 whole entry): as the sequence (Q5S007 whole entry G2019S) above, with S2019G counted along it
Experiment [7] has as its target T1, Mitogen-activated protein kinase kinase kinase 5 (Homo sapiens) (UniProt Q99683).
T1 sequence (whole entry): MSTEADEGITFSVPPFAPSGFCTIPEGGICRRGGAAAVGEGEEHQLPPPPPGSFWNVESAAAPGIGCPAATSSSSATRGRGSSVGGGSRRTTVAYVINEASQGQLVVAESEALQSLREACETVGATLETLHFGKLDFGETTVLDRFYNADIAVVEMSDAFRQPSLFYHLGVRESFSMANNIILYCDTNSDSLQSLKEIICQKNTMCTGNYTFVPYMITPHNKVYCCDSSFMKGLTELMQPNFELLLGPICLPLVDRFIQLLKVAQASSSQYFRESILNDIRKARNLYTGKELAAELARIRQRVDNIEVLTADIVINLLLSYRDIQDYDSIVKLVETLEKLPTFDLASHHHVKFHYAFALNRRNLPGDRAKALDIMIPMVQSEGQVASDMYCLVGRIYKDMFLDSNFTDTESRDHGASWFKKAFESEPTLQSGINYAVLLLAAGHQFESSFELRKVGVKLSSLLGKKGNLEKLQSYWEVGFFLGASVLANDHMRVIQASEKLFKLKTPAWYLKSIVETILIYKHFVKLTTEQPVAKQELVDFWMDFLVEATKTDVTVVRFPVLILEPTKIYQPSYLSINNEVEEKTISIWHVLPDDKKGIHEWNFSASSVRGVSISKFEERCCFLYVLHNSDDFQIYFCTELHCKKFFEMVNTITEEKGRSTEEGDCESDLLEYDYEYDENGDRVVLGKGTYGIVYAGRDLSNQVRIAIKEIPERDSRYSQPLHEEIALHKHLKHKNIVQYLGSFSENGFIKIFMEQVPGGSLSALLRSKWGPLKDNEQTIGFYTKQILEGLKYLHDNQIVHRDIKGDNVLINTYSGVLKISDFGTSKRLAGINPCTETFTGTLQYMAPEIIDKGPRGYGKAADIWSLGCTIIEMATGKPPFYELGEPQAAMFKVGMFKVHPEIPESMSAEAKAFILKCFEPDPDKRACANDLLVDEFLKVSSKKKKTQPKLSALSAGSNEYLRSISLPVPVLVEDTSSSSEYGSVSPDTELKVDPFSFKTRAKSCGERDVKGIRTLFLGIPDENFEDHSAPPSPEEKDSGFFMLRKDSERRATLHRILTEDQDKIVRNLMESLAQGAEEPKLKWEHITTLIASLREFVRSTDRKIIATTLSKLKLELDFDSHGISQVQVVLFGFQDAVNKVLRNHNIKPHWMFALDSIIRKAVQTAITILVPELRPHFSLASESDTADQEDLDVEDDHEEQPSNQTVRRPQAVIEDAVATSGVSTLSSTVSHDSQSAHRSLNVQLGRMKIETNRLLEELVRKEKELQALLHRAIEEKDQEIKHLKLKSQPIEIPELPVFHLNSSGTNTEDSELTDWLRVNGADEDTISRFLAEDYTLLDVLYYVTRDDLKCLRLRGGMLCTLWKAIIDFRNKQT
In words: Selectivity interaction (ActivX KiNativ screen (ex vivo kinase selectivity in human PBMCs)) EUB0001619a MAP3K5. The settings on record: PBMC, at 1 µM. The class given is cell-based.

Experiment [8] deals with Cyclin-dependent kinase 1 (Homo sapiens) (UniProt P06493). Description: Selectivity interaction (ActivX KiNativ screen (kinase selectivity in THP-1 cell lysates)) EUB0000639a CDK1. The class given is subcellular. The settings on record: lysate.
Sequence of Cyclin-dependent kinase 1 (Homo sapiens) (P06493 whole entry, looked up): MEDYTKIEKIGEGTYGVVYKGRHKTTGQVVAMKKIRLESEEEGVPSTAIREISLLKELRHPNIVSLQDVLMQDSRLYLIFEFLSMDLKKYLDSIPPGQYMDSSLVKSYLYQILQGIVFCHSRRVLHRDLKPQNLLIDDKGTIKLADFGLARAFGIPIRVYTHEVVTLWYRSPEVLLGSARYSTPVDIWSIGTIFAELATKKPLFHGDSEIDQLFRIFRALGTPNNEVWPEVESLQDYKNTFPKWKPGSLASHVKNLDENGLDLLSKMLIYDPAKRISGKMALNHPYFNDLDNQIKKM
Experiment [9] addresses Dual specificity tyrosine-phosphorylation-regulated kinase 1A (Homo sapiens, UniProt Q13627). In words: Selectivity interaction (Kinase panel (Invitrogen)) EUB0000639a DYRK1A. The settings on record: at 200 nM.
The target in experiment [10] is Serine/threonine-protein kinase tousled-like 2 (Homo sapiens) (UniProt Q86UE8). In words: Selectivity interaction (ActivX KiNativ screen (kinase selectivity in THP-1 cell lysates)) EUB0000639a TLK2. The class given is subcellular. The settings on record: lysate, at 0.01 µM.
Experiment [11] concerns the target Tyrosine-protein kinase Fyn (Homo sapiens) (UniProt P06241). In words: Selectivity interaction (Kinase screening (Upstate/Millipore)) EUB0000604a FYN.
Experiment [12] addresses Glycogen synthase kinase-3 beta (Homo sapiens, UniProt P49841). Description: Selectivity interaction (KinomeScan (DiscoverX)) EUB0001049a GSK3B. The settings on record: at 1 µM.
The target in experiment [13] is Serine/threonine-protein kinase WNK3 (Homo sapiens) (UniProt Q9BYP7). In words: Selectivity interaction (KinomeScan (DiscoverX)) EUB0001049a WNK3. The settings on record: at 1 µM.
Experiment [14] concerns the target Calcium/calmodulin-dependent protein kinase kinase 2 (Homo sapiens) (UniProt Q96RR4). Description: Selectivity interaction (ProQinase) EUB0000171b CAMKK2.

Sequence of Calcium/calmodulin-dependent protein kinase kinase 2 (Homo sapiens) (Q96RR4 2-588 limits assumed): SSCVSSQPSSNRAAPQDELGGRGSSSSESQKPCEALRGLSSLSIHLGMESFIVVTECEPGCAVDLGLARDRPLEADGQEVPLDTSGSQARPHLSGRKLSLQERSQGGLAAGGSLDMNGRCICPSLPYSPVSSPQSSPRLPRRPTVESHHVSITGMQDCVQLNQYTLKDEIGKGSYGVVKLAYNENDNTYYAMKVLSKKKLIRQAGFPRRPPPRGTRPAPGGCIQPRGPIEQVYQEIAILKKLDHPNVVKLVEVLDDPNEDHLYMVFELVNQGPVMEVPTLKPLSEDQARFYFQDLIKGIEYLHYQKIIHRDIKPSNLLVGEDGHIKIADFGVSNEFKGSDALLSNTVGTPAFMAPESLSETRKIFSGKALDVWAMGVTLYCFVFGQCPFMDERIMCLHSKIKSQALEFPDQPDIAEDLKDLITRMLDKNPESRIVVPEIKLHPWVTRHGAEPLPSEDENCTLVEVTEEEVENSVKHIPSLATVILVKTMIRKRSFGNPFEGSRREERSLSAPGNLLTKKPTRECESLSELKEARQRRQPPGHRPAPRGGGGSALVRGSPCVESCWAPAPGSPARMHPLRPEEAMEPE
Sequence of Cyclin-dependent kinase 16 (Homo sapiens) (Q00536 whole entry): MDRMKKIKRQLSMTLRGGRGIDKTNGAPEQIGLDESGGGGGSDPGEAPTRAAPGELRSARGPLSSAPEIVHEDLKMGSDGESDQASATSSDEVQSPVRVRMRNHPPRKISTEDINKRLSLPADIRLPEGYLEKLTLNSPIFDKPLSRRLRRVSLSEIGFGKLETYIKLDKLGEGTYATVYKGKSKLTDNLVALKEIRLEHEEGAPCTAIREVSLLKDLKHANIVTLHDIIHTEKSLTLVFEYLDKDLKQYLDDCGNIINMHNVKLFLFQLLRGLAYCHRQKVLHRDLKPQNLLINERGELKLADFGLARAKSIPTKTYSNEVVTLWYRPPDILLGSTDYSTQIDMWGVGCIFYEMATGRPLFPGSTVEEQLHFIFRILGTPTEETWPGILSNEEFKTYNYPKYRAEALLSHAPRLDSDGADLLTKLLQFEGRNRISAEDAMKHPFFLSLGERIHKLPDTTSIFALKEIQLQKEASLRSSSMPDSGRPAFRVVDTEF
Sequence of Glycogen synthase kinase-3 beta (P49841 whole entry, looked up): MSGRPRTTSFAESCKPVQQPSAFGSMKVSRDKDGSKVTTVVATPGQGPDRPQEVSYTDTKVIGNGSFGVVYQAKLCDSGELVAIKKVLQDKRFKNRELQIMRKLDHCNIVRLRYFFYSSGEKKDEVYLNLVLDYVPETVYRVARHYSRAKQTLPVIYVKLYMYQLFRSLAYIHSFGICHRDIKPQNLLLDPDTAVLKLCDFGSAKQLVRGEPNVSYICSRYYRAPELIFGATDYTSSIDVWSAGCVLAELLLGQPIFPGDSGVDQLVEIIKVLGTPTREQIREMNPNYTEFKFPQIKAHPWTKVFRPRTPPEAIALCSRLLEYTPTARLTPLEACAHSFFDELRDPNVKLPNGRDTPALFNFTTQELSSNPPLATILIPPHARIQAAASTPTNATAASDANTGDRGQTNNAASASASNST

For the compound `CN(C)C/C=C/C(=O)Nc1ccc(C(=O)N2CCCC(Nc3ncc(Cl)c(-c4c[nH]c5ccccc45)n3)C2)cc1` (centres undefined), the % of control was found to be 99% in experiment [1] and 68% in [2].

Take `Cc1cc(C)cc([C@@H]2c3cc(C)ccc3NC(=O)CN2C(=O)c2ccc(Br)s2)c1`: the % of inhibition in experiment [3] was -17%.

In [4], `CNC(=O)Nc1ccc(-c2nc(N3CC4CCC(C3)O4)c3cnn(C4CCC5(CC4)OCCO5)c3n2)cc1` displayed a % of control of 90%.

Turning to `CN(C)CCOc1ccc(-c2nc(-c3ccncc3)c(-c3ccc4c(c3)CC/C4=N\O)[nH]2)cc1`, the % of control in experiment [5] turned out to be 76%; in [6], 79%.

Take `N#Cc1cccc(-c2c[nH]c3ncnc(N4CCOCC4)c23)c1`: the % of inhibition in experiment [7] was 21%.

As for `CC[C@@H]1[C@H](F)C(=O)N[C@@H]1COc1nccc2cc(C(N)=O)c(OC)cc12` [ZIMLOVISERTIB], the % of inhibition is 2.4% in experiment [8] (at 0.01 µM); 3.3% in [8] (at 0.04 µM); 14.8% in experiment [8] (at 0.2 µM); 3.1% in [8] (at 1 µM); -9% in experiment [8] (at 5 µM); 17.9% in experiment [9]. Besides, in [10], the % of inhibition was 0.7%.

Regarding `Cc1cnc(Nc2ccc(F)cc2Cl)nc1-c1c[nH]c(C(=O)N[C@H](CO)c2cccc(Cl)c2)c1`, the % of inhibition in [11] is 11%.

On to `COc1cc(Nc2nc(C)cc(-c3cnn4nc(OC)ccc34)n2)cc(C(F)(F)F)c1`, for which the % of control was 100% in experiment [12] and 81% in [13].

For `C=CC(=O)Nc1cccc(C(=O)Nc2ccc(Nc3cc(-c4[nH]c(SC)nc4C)ccn3)cc2)c1`, the % of control came to 83% in experiment [14] (at 1 µM) and 86% in experiment [14] (at 5 µM).
